pKi: −log10 of the molar value. Where two headings read alike, the source gives them in different places. Starred links: 1 amine or outer side, 2 acyl side, 3 side chain; linkers in the order of their positions; H or OH if unused. Residues, ends and D or L forms follow the SMILES beside them. *: point of attachment. Glutaryl = O=C(CCCC(=O)[*:2])[*:1]; NHPhenethyl = c1ccc(CCN*)cc1; Suc = O=C(CCC(=O)[*:2])[*:1]; NHPr = CCCN*
Legend:
[1] = molecular target: swine's pancreatic elastase (E3) (Sus scrofa, UniProt P00772); assay: Inhibition constants (Ki) with pancreatic elastase and chromogenic p-nitroanilide substrates; type: biochemical
Chain of swine's pancreatic elastase (E3) (P00772 27-266): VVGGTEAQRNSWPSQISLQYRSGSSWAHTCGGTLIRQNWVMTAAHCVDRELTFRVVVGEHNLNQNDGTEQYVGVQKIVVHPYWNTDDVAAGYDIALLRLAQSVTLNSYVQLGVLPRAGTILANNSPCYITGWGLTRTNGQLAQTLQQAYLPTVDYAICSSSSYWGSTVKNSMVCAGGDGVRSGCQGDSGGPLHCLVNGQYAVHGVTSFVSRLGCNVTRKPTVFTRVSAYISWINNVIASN
Text: (§1) The earlier work also led to the surprising discovery that the carboxy group in the N-terminal part of the inhibitor as compared with the hydrophobic residue, such as an acetyl, substantially enhances inhibition capacity in the same manner as it enhances the constants of elastolytic hydrolysis of substrates of this type. It is further known that the properties of an elastolytic inhibitor are dependent upon the length of the peptide chain as well as at the substrate (eur. J. Biochem. 69, 1, 1976), higher inhibition capacity being present with a tripeptide than with a dipeptide. Experiments with vitro inhibition constants (Ki) for the alkylamides of 3-carboxypropionyl and 4-carboxybutyryl di and tripeptides were determined using pancreatic elastase and chromogenic substrates of p-nitroanilides of succinyl or glutaryl tetraalanines, the results of which are set forth in Table 1, below. Inhibition constant of the inhibitors described herein were also determined using human elastase, that is, human duodenal elastase after stimulation with cholecystokinine (E1) or lyophilized human pancreated fluid obtained by cannulation of the pancreatic duct outlet (E2), and they were then compared with swine's pancreatic elastase (E3), the results of which are set forth in Table 2, below.

[2] = molecular target: human duodenal elastase after stimulation with cholecystokinine (E1); assay: Inhibition constants (Ki) with human duodenal elastase and chromogenic substrates; type: biochemical
Text: as §1

[3] = molecular target: lyophilized human pancreated fluid obtained by cannulation of the pancreatic duct outlet (E2); assay: Inhibition constants (Ki) with human pancreatic fluid elastase and chromogenic substrates; type: biochemical
Text: as §1

[4] = Experimental pancreatitis in rats induced by sodium desoxycholate, serum amylase; type: in vivo; details: simultaneous application of 20 mg intraperitoneally
[5] = Table 1, pancreatic elastase, substrate Glt-(Ala)4-NAn, read-out: Ki, substrate Glt-(Ala)4-NAn
[6] = Table 1, pancreatic elastase, substrate Suc-(Ala)4-NAn, read-out: Ki, substrate Suc-(Ala)4-NAn
[7] = Table 2, substrate Glt-(Ala)4-NAn, read-out: Ki, Glt-(Ala)4-NAn, E1
[8] = Table 2, substrate Suc-(Ala)4-NAn, read-out: Ki, Suc-(Ala)4-NAn, E1
[9] = Table 2, substrate Glt-(Ala)4-NAn, read-out: Ki, Glt-(Ala)4-NAn, E2
[10] = Table 2, substrate Suc-(Ala)4-NAn, read-out: Ki, Suc-(Ala)4-NAn, E2

SMILES	pKi [1, 5]	pKi [1, 6]	pKi [2, 7]	pKi [2, 8]	pKi [3, 9]	pKi [3, 10]	pKi ([1]; Table 2, swine's pancreatic elastase (E3), substrate Glt-(Ala)4-NAn, read-out: Ki, Glt-(Ala)4-NAn, E3)	pKi ([1]; Table 2, swine's pancreatic elastase (E3), substrate Suc-(Ala)4-NAn, read-out: Ki, Suc-(Ala)4-NAn, E3)	level of serum amylase [4]
CC(C)CNC(=O)[C@@H]1CCCN1C(=O)[C@H](C)NC(=O)CCC(=O)O [Suc--Ala--Pro--NH--iBu]	2.24	2.69							
C[C@H](NC(=O)CCC(=O)O)C(=O)N[C@@H](C)C(=O)NCCc1ccccc1 [Suc--(Ala)2 --NH--EtPh, 3-Carboxypropionylalanyl Alanine Phenylethylamide] (Suc-Ala-Ala-NHPhenethyl)	3.18	2.84							
CNC(=O)[C@H](C)NC(=O)[C@H](C)NC(=O)[C@H](C)NC(=O)CCCC(=O)O [Glt--(Ala)3 --NH--Me]	3.49	3.55							
CCNC(=O)[C@H](C)NC(=O)[C@H](C)NC(=O)CCCC(=O)O [Glt--(Ala)2 --NH--Et] (Glutaryl-Ala-Ala-NHEt)	3.96	4.17							
CC(C)CNC(=O)[C@H](C)NC(=O)[C@H](C)NC(=O)[C@H](C)NC(=O)CCCC(=O)O [Glt--(Ala)3 --NH--iBu, 4-Carboxybutyrylalanyl-alanyl Alanine Isobutylamide]	3.10	3.18							
CCNC(=O)[C@@H]1CCCN1C(=O)[C@H](C)NC(=O)CCC(=O)O [Suc--Ala--Pro--NH--Et, 3-Carboxypropionylalanyl Proline Ethylamide] (Suc-Ala-Pro-NHEt)	4.10	3.95							
CCNC(=O)[C@H](C)NC(=O)[C@H](C)NC(=O)[C@H](C)NC(=O)C=CC(=O)O [Mal--(Ala)3 --NH--Et, 3-Carboxyacryolylalanyl-alanyl Alanine Ethylamide]	4.52	4.46	4.14	4.06	3.93	4.16	4.52		
CCCNC(=O)[C@@H]1CCCN1C(=O)[C@H](C)NC(=O)[C@H](C)NC(=O)CCCC(=O)O [Glt-Ala-Ala-Pro-Nh-Pr, 4-Carboxybutyrylalanyl-alanyl Proline Propylamide] (Glutaryl-Ala-Ala-Pro-NHPr)									lower level of serum amylase
CNC(=O)[C@H](C)NC(=O)[C@H](C)NC(=O)[C@H](C)NC(=O)CCC(=O)O [Suc--(Ala)3 --NH--Me]	3.17	3.29							
CC(C)CNC(=O)[C@H](C)NC(=O)[C@H](C)NC(=O)[C@H](C)NC(=O)CCC(=O)O [Suc--(Ala)3 --NH--iBu, 3-Carboxypropionylalanyl-alanyl Alanine Isobutylamide]	2.83	3.09							
CCNC(=O)[C@H](C)NC(=O)[C@H](C)NC(=O)CCC(=O)O [Suc--(ala)2 --NH--Et] (Suc-Ala-Ala-NHEt)	3.78	4.02							
CCNC(=O)[C@H](C)NC(=O)[C@H](C)NC(=O)[C@H](C)NC(C)=O [Ac--(Ala)3 --NH--Et, reference compound]	4.34	4.55	3.91	3.62	3.93	4.16			

The next lines start with results.

pKi [1, 5]	pKi [1, 6]	pKi [2, 7]	pKi [2, 8]	pKi [3, 9]	pKi [3, 10]	pKi ([1]; Table 2, swine's pancreatic elastase (E3), substrate Glt-(Ala)4-NAn, read-out: Ki, Glt-(Ala)4-NAn, E3)	pKi ([1]; Table 2, swine's pancreatic elastase (E3), substrate Suc-(Ala)4-NAn, read-out: Ki, Suc-(Ala)4-NAn, E3)	SMILES	level of serum amylase [4]
5.60	5.60	5.14	4.96	5.35	5.42			CCCNC(=O)[C@H](C)NC(=O)[C@H](C)NC(=O)[C@H](C)NC(=O)CCCC(=O)O [Glt--(Ala)3 --NH--Pr, 4-Carboxybutyrylalanyl-alanyl Alanine Propylamide]	
5.57	5.80	4.92	5.00	4.86	5.54			CCNC(=O)[C@@H]1CCCN1C(=O)[C@H](C)NC(=O)[C@H](C)NC(=O)CCCC(=O)O [Glt--Ala--Ala--Pro--NH--Et, 4-Carboxybutyrylalanyl-alanyl Proline Ethylamide] (Glutaryl-Ala-Ala-Pro-NHEt)	lower level of serum amylase
5.35	5.17	4.68	4.92	4.85	4.89			CCCNC(=O)[C@H](C)NC(=O)[C@H](C)NC(=O)[C@H](C)NC(=O)CCC(=O)O [Suc--(Ala)3 --NH--Pr, 3-Carboxypropionylalanyl-alanyl Alanine Propylamide]	
4.54	4.70	4.05	4.12	4.33	4.54		4.70	CCNC(=O)[C@H](C)NC(=O)[C@H](C)NC(=O)[C@H](C)NC(=O)CCC(=O)O [Suc--(Ala)3 --NH--Et, 3-Carboxypropionylalanyl-alanyl Alanine Ethylamide]	
5.08	5.06	4.72	4.82	4.72	5.13			CCNC(=O)[C@H](C)NC(=O)[C@H](C)NC(=O)[C@H](C)NC(=O)CCCC(=O)O [Glt--(Ala)3 --NH--Et, 4-Carboxybutyrylalanyl-alanyl Alanine Ethylamide]	lower level of serum amylase
5.33	5.60	4.72	4.85	4.77	4.64			CCNC(=O)[C@@H]1CCCN1C(=O)[C@H](C)NC(=O)[C@H](C)NC(=O)CCC(=O)O [Suc--Ala--Ala--Pro--NH--Et, 3-Carboxypropionylalanyl-alanyl Proline Ethylamide] (Suc-Ala-Ala-Pro-NHEt)	
